Measured values published in patent US7812142B2, “Pentose derivatives as anti-hyperglycemic drugs” (Yissum Research Development Company of the Hebrew …, priority 2002, dated 2010).

Key:
3T3-L1 adipocytes = assay: Screening of methylated xylose derivatives, dGlc uptake assay (Table 1); assay type: cell-based; settings: Mean±SEM (n=3-6); for HEXOSE UPTAKE (Percent of Control) Without Insulin: 3T3-L1 adipocytes 24 hr at 20 mM glucose, test compounds 0.1-20.0 mM, 2-45 hr; for HEXOSE UPTAKE (Percent of Control) With Insulin: as E1, 500 nM insulin 30 min prior to uptake assay
Source text: There are five carbon atoms in xylose available for chemical modifications. Each of these atoms was methylated by modifications of published chemical procedures [Bollenback, G. N. (1963) In Methods in carbohydrate chemistry, vol. 2 (Whistler, R. L. and Wolfrom, M. L., eds.), pp. 326-331, Academic Press, New York; Bowering, W. and Timel, T. (1958) Can. J. Chem. 36, 283-285; Levine, P. and Raymomd, A. (1933) J. Biol. Chem. 102, 331-344; Takeo, K. (1992) Carbohyd. Res. 224, 311-318]. All compounds were purified by HPLC and their structure verified by NMR spectroscopy. […] At the end of the incubation period the cells were taken for a standard [^3H]-2-deoxy-D-glucose uptake assay in the absence or the presence of 500 nM insulin (30 min exposure prior to the uptake assay).
3T3-L1 adipocytes and L6 myotubes were maintained for 24 hr at 20 mM glucose. Test compounds were added (0.1-20.0 mM) and the cells were incubated further for 2-45 hr. At the end of the incubation periods the cells were washed and taken for a standard [^3H]2-deoxy-D-glucose (dGlc) uptake assay. Uptake values (given for control cells) are in nmol dGlc/mg protein/min. Mean±SEM (n=3-6).
(§1) Uptake assay of the tritiated glucose analogue, 2-deoxy-D-glucose, is routinely performed as described in [Sasson, S. and Cerasi, E. (1986) J. Biol. Chem. 261, 16827-16833].

[1] = system: glucose uptake in cultured cells; assay: In vitro glucose uptake / hexose transport in cultured cells with xylose derivatives (Table 2); assay type: cell-based; settings: for EC50 / ECmax: EC = Effective concentration
Method: Table 2 summarizes in vitro results obtained with some of these newly synthesized xylose derivatives.
as §1
All new compounds are screened and tested first in various insulin-sensitive cell cultures used routinely in the laboratory (skeletal muscle and adipose cell lines). In addition these drugs were tested in non-insulin-sensitive cells such as primary cultures of bovine and porcine vascular endothelial and smooth muscle cells. Active compounds were tested ex-vivo on isolated rat soleus muscles. All cell cultures and tissues were maintained under hyperglycemic condition prior to the addition of the test compounds. Dose-response and time-course experiments determine which of the derivatives are subsequently tested in animal models. For each potent compound the total cell content and plasma membrane abundance of GLUT-1 and GLUT-4 was determined, as described above. The same biotinylation technique was employed to determine the total and plasma membrane content of both transporters in isolated mouse or rat soleus muscles treated with potent compounds.

C2 myotubes = assay: dGlc uptake assay in C2 myotubes; assay type: cell-based, mouse; settings: 20 mM pentose, preconditioned with 20 mM glucose (FIG. 7)
Method: The time-course of D-xylose effect in two types of skeletal muscle cells (L8 myocytes and C2 myotubes) was studied. L8 myocytes and C2 myotubes preconditioned in 20 mM glucose were incubated with 20 mM xylose. After 90 min the cells were washed and incubated with 20 mM glucose, and subjected to a deoxyglucose dGlc uptake assay (14).
The inventors have also measured the effect of different doses of D-xylose in C2 myotubes. C2 myotubes preconditioned with 20 mM glucose received fresh medium containing 20 mM glucose or increasing concentrations of D-xylose. Standard dGlc uptake assay was performed after 1 hr incubation. […] D-xylose augmented the rate of hexose transport ˜2-fold within 1-2 hr; half-maximal stimulation was observed within 20-30 min, as shown in FIG. 2.
However, in the above experiments the cells were exposed to D-xylose after removal of the conditioning glucose concentration. […] The inventors therefore added 20 mM D-xylose to C2 myotubes in the presence of 8 or 16 mM glucose and followed its effect.
It has shown before by the inventors of the present invention that deoxyglucose (dGlc) depresses the hexose transport system in myocytes and that a subsequent incubation with low (even no) glucose fails to reverse this effect of dGlc [Sasson, S et al (1997)]. The inventors have therefore measured the effect of D-xylose on rate of hexose transport following treatment with dGlc. In one experiment, C2 myotubes preconditioned with 2 mM glucose received fresh medium containing 2 mM dGlc. A portion of the cells were washed after 30 min and received 20 MM D-xylose or 2 mM D-glucose, and subjected to a dGlc uptake assay at different time points. In another experiment, L8 myocytes preconditioned with 2 mM glucose were washed and incubated with 2 mM xylose or 2 mM dGlc. A portion of the cells were washed again after 2 hr and incubated with 20 mM xylose, and subjected to a dGlc uptake assay at different time points.
as §1

PKB = PKB phosphorylation immunoblot in L6 myotubes; assay type: cell-based, rat; settings: 23.0 mM glucose; 100 nM insulin, 20 mM xylose, 5 mM EH-114 or 250 μM EH-40, up to 24 hrs (FIG. 11B)
Method: FIG. 11B: Effects of insulin D-xylose and xylose derivatives on PKB phosphorylation. L6 myotubes were maintained at 5.5 mM or 23.0 mM glucose. The latter were treated with 100 nM insulin, 20 mM xylose, 5 mM EH-114 or 250 μM EH-40 up to 24 hrs. At the indicated times treated myotubes were collected, homogenized and lysed and the soluble protein fraction was isolated. The control myotubes were collected at the end of the 24 hr incubation period. Equal amounts of proteins of the various treated myotubes were separated on SDS-PAGE and immunoblotted with a specific antibody against phospho-Axt1/PKBα (Ser473). In order to test whether xylose derivative activate insulin transduction elements downstream of PI3K, the inventors tested the state of PKB phosphorylation, as shown in FIG. 11B.

L6 myotubes = assay: dGlc uptake assay in L6 myotubes; assay type: cell-based, rat; settings: for effect of PI3-kinase inhibitor LY-249002 on the substance's stimulation of hexose transport: 60 μM inhibitor, 23.0 mM glucose (FIG. 11A), EH-40 data not shown
Method: (§2) FIG. 10: Western blot depicting effect of 3-O-propyl-D-xylose (EH-114), and 1,3-O-dimethylxylopyranoside (EH-101) on the total cell content and plasma membrane abundance of GLUT-4 in the absence or presence of insulin. L6 myotubes were maintained for 48 hr at 23 mM Glucose. The cells were than washed and received fresh medium containing the indicated additions and incubated for additional […]. Insulin was added during the last 30 min of incubation before the dGlc uptake assay.
FIG. 11A: Effect of LY-249002, a PI3-kinase inhibitor, on insulin, D-xylose, EH-101 and EH-114-mediated glucose uptake. L6 myotubes were treated as described in the legend to FIG. 10. The glucose concentration in the culture medium was 23.0 mM. The concentration of LY-294002 was 60 μM. At the end of incubation the cells were taken for the standard dGlc uptake assay. Mean±SEM, n=3.
(§3) GLUT-1 and GLUT-4 mediate glucose entry into L6 myotubes. It is established that GLUT-4 is translocated effectively and rapidly to the plasma membrane upon insulin treatment. The inventors looked at the effect of 3-O-propyl-D-xylose EH-114) and 1,3-O-dimethylxylopyranoside (EH-101) on the total cell content and plasma membrane abundance of these transporters in the absence or presence of insulin. L6 myotubes were maintained at 5.0 or 23.0 mM glucose for 48 hr and EH-114 and EH-101 were present during the last 24 hr. The cells were then taken for the standard [^3H]-2-deoxy-D-glucose uptake assay and for the biotinylation procedure for determining the amount of GLUT-1 and GLUT-4 in the plasma membrane. High glucose levels decreased the hexose transport rate by ˜50%. Insulin augmented the transport nearly 2-fold in both cases. EH-114 and EH-101 increased the transport rate 2-3-fold in the absence of insulin. Together with insulin the uptake rate was increased nearly 3-fold.
The inventors also tested the hypothesis that the active D-xylose derivatives augment the hexose transport capacity in L6 myotubes by translocating GLUT-4 to the plasma membrane not via the common insulin-regulated pathway. For this experiment, a selective inhibitor of the enzyme PI3-kinase, LY-249002, which is a key enzyme in the cellular transduction mechanism of insulin, was utilized. […] These findings also agree well with the longer onset of action of these derivatives as compared to the rapid action of insulin. Similar results were obtained when LY-249002 was present together with the derivatives throughout the entire incubation period.
as §1

GLUT-4 = assay: Cell surface biotinylation and western blot of GLUT-4 in L6 myotubes; assay type: cell-based, rat
Method: as §2, §3
Surface biotinylation of the cells was performed as previously described [Sasson et al (1997), Diabetologia, 40, 30-398].

glucose transporter = assay: [3H]dGlc uptake with unlabeled carbohydrates (affinity for the glucose transporter) in C2 myotubes; assay type: cell-based, mouse; settings: 0.1 mM dGlc, increasing unlabeled carbohydrate
Method: FIG. 6: Lack of affinity of D-xylose for the glucose transporters. C2 myotubes preconditioned with 20 mM glucose were subjected to [^3H]dGlc uptake assay (0.1 mM dGlc) with increasing concentrations of unlabeled dGlc, glucose or xylose. The unlabeled carbohydrates were added to the [^3H]dGlc solution in the uptake assay.
The inventors have also determined the affinity of D-xylose for the glucose transporter. C2 myotubes preconditioned with 20 mM glucose were subjected to [^3H]dGlc uptake assay (0.1 mM dGlc) in the presence of increasing concentrations of unlabeled dGlc, glucose or xylose. The results of these experiments are depicted in FIG. 6. The affinity of D-xylose for the glucose transporter is 2 orders of magnitude lower compared to glucose. The final concentration of dGlc in the assay was 0.1 mM.

COC1OC[C@@H](OC)[C@H](OC)[C@H]1OC (stereo partly drawn) [1,2,3,4-O-tetramethyl xylopyranoside]
HEXOSE UPTAKE (Percent of Control) Without Insulin (3T3-L1 adipocytes): 95 ± 7% of Control | HEXOSE UPTAKE (Percent of Control) With Insulin (3T3-L1 adipocytes): 104 ± 8% of Control

COC1OC[C@@H](O)[C@H](O)[C@H]1O (stereo partly drawn) [1-O-methyl xylopyranoside]
Fold Increase of Glucose Uptake [1]: 1.5 fold | EC50 [1]: 6000 µM | ECmax [1]: 10 mM | HEXOSE UPTAKE (Percent of Control) Without Insulin (3T3-L1 adipocytes): 154 ± 4% of Control | HEXOSE UPTAKE (Percent of Control) With Insulin (3T3-L1 adipocytes): 156 ± 24% of Control

CO[C@H]1C(O)OC[C@@H](O)[C@@H]1O (stereo partly drawn) [2-O-methyl xylopyranose]
HEXOSE UPTAKE (Percent of Control) Without Insulin (3T3-L1 adipocytes): 63 ± 7% of Control | HEXOSE UPTAKE (Percent of Control) With Insulin (3T3-L1 adipocytes): 73 ± 15% of Control

CCO[C@@H]([C@H](O)CO)[C@@H](O)C=O [3-O-ethyl D-xylose]
Fold Increase of Glucose Uptake [1]: 2.3 fold | EC50 [1]: 1300 µM | ECmax [1]: 4 mM

CO[C@H]1[C@H](O)COC(O)[C@@H]1O (stereo partly drawn) [3-O-methyl xylopyranose]
Fold Increase of Glucose Uptake [1]: 2.0 fold | EC50 [1]: 2000 µM | ECmax [1]: 4 mM | HEXOSE UPTAKE (Percent of Control) Without Insulin (3T3-L1 adipocytes): 201 ± 30% of Control | HEXOSE UPTAKE (Percent of Control) With Insulin (3T3-L1 adipocytes): 159 ± 7% of Control

CO[C@@H]1COC(O)[C@H](O)[C@H]1O (stereo partly drawn) [4-O-methyl xylopyranose]
HEXOSE UPTAKE (Percent of Control) Without Insulin (3T3-L1 adipocytes): 72 ± 112% of Control | HEXOSE UPTAKE (Percent of Control) With Insulin (3T3-L1 adipocytes): 111 ± 2% of Control

COC[C@H]1OC(O)[C@H](O)[C@H]1O (stereo partly drawn) [5-O-methyl xylofuranose]
HEXOSE UPTAKE (Percent of Control) Without Insulin (3T3-L1 adipocytes): 70 ± 5% of Control | HEXOSE UPTAKE (Percent of Control) With Insulin (3T3-L1 adipocytes): 53 ± 22% of Control

O=C[C@@H](O)[C@@H](O)[C@H](O)CO [D-lyxose]
effect of pentoses on the rate of hexose transport (C2 myotubes): to a lesser extent

O=C[C@H](O)[C@H](O)[C@H](O)CO [D-ribose]
effect of pentoses on the rate of hexose transport (C2 myotubes): to a lesser extent

COC(OC)[C@@H]1OC(c2ccccc2)O[C@@H]2COC(c3ccccc3)O[C@@H]21 (stereo partly drawn) [EH-3, 2,4:3,5-di-O-benzylidene-D-xylose-dimethylacetal]
Fold Increase of Glucose Uptake [1]: 1.7 fold | EC50 [1]: 125 µM | ECmax [1]: 0.3 mM

CCSC(SCC)[C@@H]1OC(c2ccccc2)O[C@H](CO)[C@@H]1O (stereo partly drawn) [EH-40, 2,4-benzylidene-D-xylose-diethyl-dithioacetal]
PKB phosphorylation (PKB): time-dependent and sustained phosphorylation | effect of PI3-kinase inhibitor LY-249002 on the substance's stimulation of hexose transport (L6 myotubes): abolished

COC1OC[C@@H](O)[C@H](OC)[C@H]1O (stereo partly drawn) [EH-101, 1,3-O-dimethyl xylopyranoside]
Fold Increase of Glucose Uptake [1]: 3.0 fold | EC50 [1]: 2000 µM | ECmax [1]: 4 mM | duration of activity following removal from the culture media ([1]; after being washed from cell cultures): 24 h | total cell content of GLUT-4 (GLUT-4; L6 cells exposed to 23.0 mM glucose (FIG. 10)): increased the total content of the transporter | translocation of GLUT-4 to the plasma membrane (GLUT-4; L6 myotubes, xylose derivatives in the absence of insulin, insulin 500 nM (FIG. 10)): induced significant translocation of GLUT-4 to the plasma membrane | effect of PI3-kinase inhibitor LY-249002 on the substance's stimulation of hexose transport (L6 myotubes): failed to affect | increase of uptake rate together with insulin (L6 myotubes; L6 myotubes, compound during last 24 hr plus insulin): ~3 fold | HEXOSE UPTAKE (Percent of Control) Without Insulin (3T3-L1 adipocytes): 267 ± 57% of Control | HEXOSE UPTAKE (Percent of Control) With Insulin (3T3-L1 adipocytes): 174 ± 28% of Control

CCS[C@@H]1OC[C@@H](O)[C@H](O)[C@H]1O [EH-143, β-ethylthio-D-xylopyranoside]
hexose transport augmenting activity of thioalkyl derivatives [1]: hexose transport augmenting activity

CCSC(SCC)C1OC(c2ccccc2)OC(CO)C1OC [EH-169, 3-O-methyl-2,4-O-benzylidene-D-xylose-diethyl-dithioacetal]
increase of [3H]-2-deoxy-D-glucose uptake (L6 myotubes; 60 μM): 1.8 fold | increase of [3H]-2-deoxy-D-glucose uptake (L6 myotubes; 120 μM): 2 fold

O=CC[C@@H](O)[C@H](O)[C@H](O)CO [dGlc, 2-deoxy-D-glucose]
competition with [3H]dGlc (glucose transporter): competed markedly and similarly

di-4-(1-O-methyl-xylopyranoside)-phosphoryl-PEG-O-methyl [1-O-methyl D-xylose-PEG]
Fold Increase of Glucose Uptake [1]: 1.9 fold | EC50 [1]: 300 µM | ECmax [1]: 0.6 mM
